From patent publication US6291530A, “Aryl-substituted acrylamides with Leukotriene B4 (LTB-4) receptor antagonist activity” (Novartis AG, priority 1999, dated 2001)

Tests used:
[1] = test system: arachidonic acid-induced mouse ear inflammation; test: Arachidonic acid-induced mouse ear inflammation model; format: in vivo
Procedure: The methodology used is essentially that described by Young et al., J. Invest. Dermatol. 82, 367-371 (1984). Female mice (A/J, Jakson Labs., Bar Harbor, Me.) weighing 20 gm are divided into groups consisting of six mice per treatment group. They are fasted overnight. Arachidonic acid (2 mg in 15 μl acetone) (Sigma, St Louis, Mo.) is applied to the inner surface of the right ear. The left ear received 15 μl of acetone. […] […] Edema is determined by subtracting the weight of the left ear punch from that of the right ear. As the marker for neutrophil infiltration, myeloperoxidase activity is measured as described by Bradley et al., J. Invest. Dermatol., Vol. 78, p. 206 (1982). The right ear punches from the both the vehicle and compound treated groups are used. The percentage of inhibition is calculated by comparing the myeloperoxidase activity of the compound treated groups with those of the vehicle treated group.

LTB-4 receptor = biological target: T1, LTB-4 receptor (Homo sapiens, UniProt Q15722); test: LTB-4 receptor binding assay: binding of [H^3]-LTB-4 to intact human neutrophils; settings: [H^3]-LTB-4, intact human neutrophils
T1 construct: to intact human neutrophils; endogenous in cells; host or cells: intact neutrophils prepared from human venous blood
T1 sequence (Q15722 whole entry): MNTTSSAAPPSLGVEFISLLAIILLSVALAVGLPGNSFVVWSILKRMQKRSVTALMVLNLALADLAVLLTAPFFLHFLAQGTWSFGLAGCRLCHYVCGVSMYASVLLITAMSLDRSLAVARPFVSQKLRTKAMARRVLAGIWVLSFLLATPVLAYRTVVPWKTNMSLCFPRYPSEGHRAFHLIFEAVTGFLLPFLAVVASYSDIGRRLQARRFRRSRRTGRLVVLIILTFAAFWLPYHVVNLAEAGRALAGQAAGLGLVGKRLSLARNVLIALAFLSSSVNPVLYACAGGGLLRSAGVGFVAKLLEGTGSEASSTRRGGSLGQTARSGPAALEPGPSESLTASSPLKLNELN
Procedure: LTB-4 receptor binding is dete mined in the following assay involving receptor binding of [H^3 ]-LTB-4 to intact human neutrophils.
(§1) LTB-4 is purchased as a solution in either ethanol or DMSO (Biomol, Plymouth Meeting, Pa.) and diluted into Hank's balanced Salt Solution (HBSS) before use. For in vitro tests, test compounds are dissolved in DMSO to produce stock solution of 10 mM. Dilutions are made so that the final concentration of DMSO is 0.35%.
Neutrophils are prepared from […] human venous blood. Blood (25 ml) is mixed with HESPAN (15 ml)(DuPont, Wilmington, Del.) and allowed to stand at room temperature for 40 minutes. The supernatant is removed and centrifuged for 10 minutes at 400×g. The resulting pellet is resuspended in phosphate-buffered saline without calcium and magnesium (GIBCO, Grand Islands N.Y.). Thirty-five ml of the resuspended cells is layered over 15 ml of Ficoll-Paque (Sigma, St Louis, Mo.) and then centrifuged for 15 minutes at 420×g. The resulting cell pllet is resuspended in 10 ml of phosphate-buffered saline without calcium and magnesium. Twenty-five ml of deionized water are added to the suspension for 20 seconds followed by the same volume of buffer at twice the normal concentration. The suspension is centrifuged for 5 minutes at 200×g,and the pellet resuspended in Hank's Balanced Salt Solution (HBSS).
Binding of [H^3 ]-LTB-4 to neutrophils is measured as described by Gorman and Lin, Methods Enzymol. 141: 372-378 (1987) and Jackson et al., J. Pharmacol.Exp. Ther., Vol. 262, p. 80 (1992). Intact human ntutrophils (3×106) are added to HBSS containing 0.5 nM [H^3 ]-LTB-4 (specific activity 32 Ci/mmol, DuPont-NEN, Boston, Mass.) and compound (final volume 0.5 ml). After incubating for 20 minutes at 0° C., the bound radioactivity is collected on Whatman GF/C filters by vacuum filtration using a Brandel harvester. The filters are washed twice with ice cold HBSS. Filters are counted using Formula-989 scintillation cocktail (DuPont-NEN, Boston, Mass.). Non-specific binding is determined in the presence of 300 nM LTB-4 (Biomol Res. Labs, Plymouth Meeting, Pa.).

[2] = test system: LTB-4-induced intracellular calcium rise in human neutrophils; test: Inhibition of the LTB-4-induced intracellular calcium rise in human neutrophils; format: cell-based; settings: Neutrophil, read-out: Concentration at which calcium rise is inhibited
Procedure: as §1
Inhibition of LTB-4 is determined by measuring the inhibition of the LTB-4-induced intracellular calcium rise in human neutrophils. Increases in intracellular Ca++ are measured as described by Seligmann et al., Agents and Actions, Vol. 21, p. 375 (1987). Neutrophils are purified from citrated human venous blood by sedimentation in HESPAN as described above. Neutrophils are isolated from the resulting pellet by centrifugal elutriation (Berkow et al., J. Lab. Clin. Med., Vol. 104, p. 698, 1984). Except were noted the neutrophils are incubated with acetoxymetbyl ester of Fura-2 (0.2 μM)(Molecular Probes Inc.) for 30 minutes at 37° C. in HEPES-buffered Hank's solution containing Ca++ and Mg++. The Fura-2 loaded cells are washed and stored on ice at a concentration of 2×10^6 cells/ml in 10 mM HEPES-buffered HBSS without Ca++ and Mg++. Fifteen minutes before assay, 1.5 ml of the cell suspension is mixed with 10 μl of 0.15 M Ca++ and 0.15 M Mg++ by stirring at 37° C. Compounds are added 40 seconds before the addition of 1 nM LTB-4. The change in fluorescence was followed using a DMX 1000 spectrofluorometer (SLM-Aminco Instruments, Urbana Ill.).

[3] = 3 mg/Kg p.o., 1.5 hours post administration
[4] = 10 mg/Kg p.o., 18 hours post administration

Compound	Inhibition of edema [1, 3]	Inhibition of myeloperoxidase activity [1, 3]	Inhibition of edema [1, 4]	Inhibition of myeloperoxidase activity [1, 4]	IC50 (LTB-4 receptor)	IC50 [2]
CCN(CC)C(=O)/C=C(\C)c1ccc(OCc2c(F)cccc2F)c(OCC(=O)O)c1 [Example 2y, (E)-[5-(2-Diethylcarbamoyl-1-methylvinyl)-2-(2,6-difluorobenzyloxy)-phenoxy]-acetic acid]	inhibit	inhibit	inhibit	inhibit	~48 nM	~18 nM
CCN(CC)C(=O)/C=C(\C)c1ccc(OC(C)c2ccccc2)c(CC(=O)O)c1 (stereo not drawn) [Example 8b, (E)-[5(2-diethylcarbamoyl-1-methylvinyl)-2-(1-phenyl-ethoxy)-phenyl]-acetic acid]	inhibit	inhibit	inhibit	inhibit	~74 nM	~8 nM
CCN(CC)C(=O)/C=C(\C)c1ccc(OCc2c(F)cccc2F)c(CC(=O)O)c1 [Example 8a, (E)-[5-(2-diethylcarbamoyl-1-methyl-vinyl)-2-(2,6-difluorobenzyloxy)-phenyl]-acetic acid]	inhibit	inhibit	inhibit	inhibit	~87 nM	~22 nM
